The source of these data is patent US12280088B2, “Dry powder formulation of caveolin-1 peptides and methods of use thereof” (BOARD OF REGENTS, THE UNIVERSITY OF TEXAS SYSTEM, priority 2018, dated 2025).

≈ marks a conversion by molar mass, not a printed value. Where two headings read alike, the source gives them in different places. Square brackets hold non-standard residues; d marks the D form. Peptide text beside a SMILES is read from it. Orn = NCCC[C@H](N)C(=O)O Bounds are passed on as bounds.

Data set [1] is described as follows: pH-solubility of polypeptide variants. The class given is physicochemical. The note with it: read-out: pH-solubility, Concentration; for solubility thermodynamic at 3 min: a: precipitate, supernatant assayed; for solubility at 3 min: b: high viscous solution, aliquot assayed. On the procedure:
(§1) Solubility study of variants was performed by adding variants powders into solvent in concentration of 5 mg/ml and then vortexing for 3 min. Observe the appearance of solutions in 5 min. Add more powder (˜5 mg/ml each time) and repeat vortex and observe until precipitation or gelation occurs.

The nature of data set [2]: Appearance of solutions in solubility study of variants. The class given is physicochemical. The protocol:
as §1

As for `CC(C)[C@H](NC(=O)[C@@H](NC(=O)[C@H](Cc1ccccc1)NC(=O)[C@@H](NC(=O)[C@@H](NC(=O)[C@H](Cc1ccccc1)NC(=O)[C@H](CO)NC(=O)[C@H](C)NC(=O)[C@@H](N)CCCCN)[C@@H](C)O)[C@@H](C)O)[C@@H](C)O)C(=O)N[C@H](C(=O)N[C@@H](CCCCN)C(=O)NCC(=O)N[C@@H](CO)C(=O)O)[C@@H](C)O` [SEQ ID NO.4] (H-KASFTTFTVTKGS-OH), the solubility thermodynamic at 3 min in data set [1] (pH 4.5) stood at 25.4 ± 0.8 mg/mL (≈ 18.5 mM); in data set [1] (pH 5.5) it was 4 ± 0.2 mg/mL (≈ 2.91 mM); in data set [1] (pH 6.5) it was 5.9 ± 0.4 mg/mL (≈ 4.29 mM); in data set [1] (pH 7.5) it was 16.7 ± 0.5 mg/mL (≈ 12.1 mM); in data set [1] (pH 8.5), 10.8 ± 1.1 mg/mL (≈ 7.86 mM). Moreover, the Appearance of solutions entry in data set [2] (pH 4.5, 5 mg/ml) is listed as “Clear”; in data set [2] (pH 4.5, 10 mg/ml), “Clear”; in data set [2] (pH 4.5, 15 mg/ml), “Clear”; in data set [2] (pH 4.5, 20 mg/ml), “Clear”; in data set [2] (pH 4.5, 25 mg/ml), “Clear”; in data set [2] (pH 7.5, 5 mg/ml), “Clear”. For the same compound, the Appearance of solutions entry is reported as “Clear” in data set [2] (pH 7.5, 10 mg/ml); “Clear” in data set [2] (pH 8.5, 5 mg/ml); “Clear” in data set [2] (pH 8.5, 10 mg/ml).
With `CC(C)[C@H](NC(=O)[C@@H](NC(=O)[C@H](Cc1ccccc1)NC(=O)[C@@H](NC(=O)[C@@H](NC(=O)[C@H](Cc1ccccc1)NC(=O)[C@H](CO)NC(=O)[C@H](C)NC(=O)[C@H](CCCCN)NC(=O)CNC(=O)[C@H](CCC(=O)O)NC(=O)[C@@H](C)NC(=O)[C@@H](C)N)[C@@H](C)O)[C@@H](C)O)[C@@H](C)O)C(=O)N[C@H](C(=O)N[C@@H](CCCCN)C(=O)NCC(=O)N[C@@H](CO)C(=O)N[C@H](C)C(=O)N[C@H](C)C(N)=O)[C@@H](C)O` [SEQ ID NO.7] (H-[dA][dA]EGKASFTTFTVTKGS[dA][dA]-NH2), the solubility at 3 min in data set [1] (pH 4.5) was ≥ 32 mg/mL; in data set [1] (pH 6.5), ≥ 30.5 mg/mL; in data set [1] (pH 7.5) it was ≥ 35.3 mg/mL; in data set [1] (pH 8.5), ≥ 23.8 mg/mL. The solubility thermodynamic at 3 min in data set [1] (pH 5.5) was 22.3 ± 0.1 mg/mL (≈ 12.1 mM). In addition, the Appearance of solutions entry in data set [2] (pH 4.5, 5 mg/ml) is given as “Clear”; in data set [2] (pH 4.5, 10 mg/ml), “Clear”; in data set [2] (pH 4.5, 15 mg/ml) it was “Clear”; in data set [2] (pH 4.5, 20 mg/ml) it was “Clear”; in data set [2] (pH 4.5, 25 mg/ml), “Clear”; in data set [2] (pH 4.5, 40 mg/ml), “Gel”. In addition, the Appearance of solutions entry in data set [2] (pH 5.5, 5 mg/ml) is reported as “Clear”; in data set [2] (pH 5.5, 10 mg/ml), “Clear”; in data set [2] (pH 5.5, 15 mg/ml), “Clear”; in data set [2] (pH 7.5, 5 mg/ml) it was “Clear”; in data set [2] (pH 7.5, 10 mg/ml) it was “Clear”; in data set [2] (pH 7.5, 15 mg/ml) it was “Clear”. Also, the Appearance of solutions entry in data set [2] (pH 7.5, 20 mg/ml) was “Clear”; in data set [2] (pH 7.5, 25 mg/ml), “Clear”; in data set [2] (pH 8.5, 5 mg/ml) it was “Clear”; in data set [2] (pH 8.5, 10 mg/ml), “Clear”; in data set [2] (pH 8.5, 15 mg/ml), “Clear”; in data set [2] (pH 8.5, 20 mg/ml) it was “Clear”. Also, the Appearance of solutions entry in data set [2] (pH 8.5, 25 mg/ml) was “Clear”.
As for `CC(=O)N[C@H](C)C(=O)N[C@H](C)C(=O)N[C@@H](CCC(=O)O)C(=O)NCC(=O)N[C@@H](CCCCN)C(=O)N[C@@H](C)C(=O)N[C@@H](CO)C(=O)N[C@@H](Cc1ccccc1)C(=O)N[C@H](C(=O)N[C@H](C(=O)N[C@@H](Cc1ccccc1)C(=O)N[C@H](C(=O)N[C@H](C(=O)N[C@H](C(=O)N[C@@H](CCCCN)C(=O)NCC(=O)N[C@@H](CO)C(=O)N[C@H](C)C(=O)N[C@H](C)C(N)=O)[C@@H](C)O)C(C)C)[C@@H](C)O)[C@@H](C)O)[C@@H](C)O` [SEQ ID NO.8] (Ac-[dA][dA]EGKASFTTFTVTKGS[dA][dA]-NH2), the solubility at 3 min in data set [1] (pH 4.5) was ≥ 24.2 mg/mL. In addition, the solubility thermodynamic at 3 min in data set [1] (pH 5.5) was found to be 23.6 ± 0.6 mg/mL (≈ 12.5 mM); in data set [1] (pH 6.5), 27.3 ± 1.2 mg/mL (≈ 14.5 mM); in data set [1] (pH 7.5) it was 28.3 ± 2.2 mg/mL (≈ 15 mM); in data set [1] (pH 8.5) it was 20.6 ± 2.4 mg/mL (≈ 10.9 mM). Further, the Appearance of solutions result in data set [2] (pH 4.5, 5 mg/ml) was “Clear”; in data set [2] (pH 4.5, 10 mg/ml) it was “Clear”; in data set [2] (pH 4.5, 15 mg/ml), “Clear”; in data set [2] (pH 4.5, 20 mg/ml), “Clear”; in data set [2] (pH 4.5, 25 mg/ml) it was “Gel”; in data set [2] (pH 5.5, 5 mg/ml) it was “Clear”. The Appearance of solutions entry was “Clear” in data set [2] (pH 7.5, 5 mg/ml); “Clear” in data set [2] (pH 7.5, 10 mg/ml); “Clear” in data set [2] (pH 7.5, 15 mg/ml); “Clear” in data set [2] (pH 8.5, 5 mg/ml); “Clear” in data set [2] (pH 8.5, 10 mg/ml); “Clear” in data set [2] (pH 8.5, 15 mg/ml). Moreover, in data set [2] (pH 8.5, 20 mg/ml), the Appearance of solutions result is “Clear”.
With `CC(C)[C@H](NC(=O)[C@@H](NC(=O)[C@H](Cc1ccccc1)NC(=O)[C@@H](NC(=O)[C@@H](NC(=O)[C@H](Cc1ccccc1)NC(=O)[C@H](CO)NC(=O)[C@H](C)NC(=O)[C@@H](N)CCCN)[C@@H](C)O)[C@@H](C)O)[C@@H](C)O)C(=O)N[C@H](C(=O)N[C@@H](CCCN)C(=O)N[C@@H](CO)C(N)=O)[C@@H](C)O` [SEQ ID NO.10, OASFTTFTVTOS-NH2] (H-[Orn]ASFTTFTVT[Orn]S-NH2), the solubility thermodynamic at 3 min in data set [1] (pH 4.5) was determined as 33.9 ± 0.9 mg/mL (≈ 26.3 mM); in data set [1] (pH 5.5), 3.6 ± 0.8 mg/mL (≈ 2.79 mM); in data set [1] (pH 6.5), 5.5 ± 0.7 mg/mL (≈ 4.27 mM); in data set [1] (pH 7.5), 19.1 ± 0.1 mg/mL (≈ 14.8 mM); in data set [1] (pH 8.5), 14.6 ± 1.6 mg/mL (≈ 11.3 mM). The Appearance of solutions result in data set [2] (pH 4.5, 5 mg/ml) is recorded as “Clear”; in data set [2] (pH 4.5, 10 mg/ml) it was “Clear”; in data set [2] (pH 4.5, 15 mg/ml), “Clear”; in data set [2] (pH 4.5, 20 mg/ml) it was “Clear”; in data set [2] (pH 4.5, 25 mg/ml), “Clear”; in data set [2] (pH 7.5, 5 mg/ml), “Clear”. Moreover, the Appearance of solutions entry was “Clear” in data set [2] (pH 7.5, 10 mg/ml); “Clear” in data set [2] (pH 7.5, 15 mg/ml); “Clear” in data set [2] (pH 7.5, 20 mg/ml); “Clear” in data set [2] (pH 8.5, 5 mg/ml); “Clear” in data set [2] (pH 8.5, 10 mg/ml); “Clear” in data set [2] (pH 8.5, 15 mg/ml).
Take `CC[C@H](C)[C@H](NC(=O)CNC(=O)[C@@H](N)CC(=O)O)C(=O)N[C@@H](Cc1c[nH]c2ccccc12)C(=O)N[C@@H](CCCCN)C(=O)N[C@@H](C)C(=O)N[C@@H](CO)C(=O)N[C@@H](Cc1ccccc1)C(N)=O` [SEQ ID NO.21] (H-DGIWKASF-NH2): the solubility thermodynamic at 3 min was found to be 0.62 ± 0.04 mg/mL (≈ 0.672 mM) in data set [1] (pH 4.5); 0.14 ± 0.02 mg/mL (≈ 0.152 mM) in data set [1] (pH 5.5); 0.26 ± 0.07 mg/mL (≈ 0.282 mM) in data set [1] (pH 6.5); 0.25 ± 0.03 mg/mL (≈ 0.271 mM) in data set [1] (pH 7.5); 0.17 ± 0.04 mg/mL (≈ 0.184 mM) in data set [1] (pH 8.5).
As for `CC(C)[C@H](N)C(=O)N[C@H](C(=O)N[C@@H](CCCCN)C(=O)N[C@@H](Cc1ccc(O)cc1)C(=O)N[C@@H](Cc1c[nH]c2ccccc12)C(=O)N[C@@H](Cc1ccccc1)C(=O)N[C@@H](Cc1ccc(O)cc1)C(=O)N[C@@H](CCCNC(=N)N)C(N)=O)[C@@H](C)O` [SEQ ID NO.22] (H-VTKYWFYR-NH2), the solubility thermodynamic at 3 min was determined as 57.2 ± 9.1 mg/mL (≈ 49.2 mM) in data set [1] (pH 4.5); 2.98 ± 0.1 mg/mL (≈ 2.57 mM) in data set [1] (pH 5.5); 3.49 ± 0.6 mg/mL (≈ 3.01 mM) in data set [1] (pH 6.5); 61.5 ± 1.7 mg/mL (≈ 53 mM) in data set [1] (pH 7.5); 29.1 ± 3.5 mg/mL (≈ 25.1 mM) in data set [1] (pH 8.5). The Appearance of solutions result in data set [2] (pH 4.5, 5 mg/ml) was “Clear”; in data set [2] (pH 4.5, 10 mg/ml), “Clear”; in data set [2] (pH 4.5, 15 mg/ml) it was “Clear”; in data set [2] (pH 4.5, 20 mg/ml), “Clear”; in data set [2] (pH 4.5, 25 mg/ml), “Clear”; in data set [2] (pH 4.5, 30 mg/ml), “Clear”. Moreover, the Appearance of solutions result in data set [2] (pH 4.5, 35 mg/ml) was “Clear”; in data set [2] (pH 4.5, 40 mg/ml), “Clear”; in data set [2] (pH 4.5, 45 mg/ml) it was “Clear”; in data set [2] (pH 4.5, 50 mg/ml), “Clear”; in data set [2] (pH 4.5, 55 mg/ml) it was “Clear”; in data set [2] (pH 4.5, 60 mg/ml), “Clear”. Besides, the Appearance of solutions entry in data set [2] (pH 7.5, 5 mg/ml) was “Clear”; in data set [2] (pH 7.5, 10 mg/ml), “Clear”; in data set [2] (pH 7.5, 15 mg/ml), “Clear”; in data set [2] (pH 7.5, 20 mg/ml), “Clear”; in data set [2] (pH 7.5, 25 mg/ml), “Clear”; in data set [2] (pH 7.5, 30 mg/ml) it was “Clear”. The Appearance of solutions result in data set [2] (pH 7.5, 35 mg/ml) is listed as “Clear”; in data set [2] (pH 7.5, 40 mg/ml), “Clear”; in data set [2] (pH 7.5, 45 mg/ml), “Clear”; in data set [2] (pH 7.5, 50 mg/ml) it was “Clear”; in data set [2] (pH 7.5, 55 mg/ml), “Clear”; in data set [2] (pH 7.5, 60 mg/ml), “Clear”. In addition, the Appearance of solutions entry in data set [2] (pH 7.5, 65 mg/ml) is reported as “Turbid”; in data set [2] (pH 8.5, 5 mg/ml) it was “Clear”; in data set [2] (pH 8.5, 10 mg/ml), “Clear”; in data set [2] (pH 8.5, 15 mg/ml), “Clear”; in data set [2] (pH 8.5, 20 mg/ml), “Clear”.
